Results from publication PMC6669608, “Evaluation of Oxasqualenoids from the Red Alga Laurencia viridis against Acanthamoeba” (Marine Drugs, 2019).

How the values were obtained:
[1] = tested on: A. castellanii Neff trophozoites; assay: Plasma membrane permeability (SYTOX Green); type: cell-based, Acanthamoeba castellanii Neff; conditions: IC90, 24 h
Procedure: The SYTOX Green assay was performed to detect alterations of the membrane permeability in treated cells. Briefly, 10^5 trophozoites were washed and incubated in saline solution with the SYTOX Green at a final concentration of 1 μM (Molecular Probes) for 15 min in the dark. Subsequently, DT solution was added (IC90).

[2] = tested on: Acanthamoeba griffini trophozoites; assay: In vitro activity against trophozoites of clinical strain A. griffini; type: cell-based, genotype T3; conditions: trophozoite stage
Procedure: Subsequently, DT was tested against two clinical isolates, A. griffini, genotype T3 obtained in a previous study and A. polyphaga genotype T4 ATCC 30461. Those strains were grown axenically in the same medium as A. castellanii Neff.
(§1) The in vitro activities of the different compounds of Laurencia were evaluated using a previously developed colorimetric assay based on the alamarBlue™ Cell Viability Reagent assay (Life Technologies, Barcelona, Spain). Briefly, 50 µL of 5 × 10⁴ trophozoites/mL were seeded onto a 96-well microtiter plate. After 15 min, the adherence of the cells to the plate bottom was confirmed by the use of the inverted microscope Leica DMIL (Leica, Wetzlar, Germany). Furthermore, 50 µL of serial dilutions of each compound was added to the 96-well microtiter plate. Finally, alamarBlue™ was placed into each well at 10% of the final volume and incubated at 26 °C with slight agitation. After 96 h, the fluorescence was measured with EnSpire Multimode Plate Reader (Perkin Elmer, Madrid, Spain) at a wavelength of 570/585 nm. The inhibitory concentration to inhibit the growth of 50% of the parasites (IC50) was calculated through nonlinear regression analysis with 95% confidence limits using the software Sigma Plot 12.0 (Systat Software Inc., London, UK). The experiments were performed three times each, allowing for standard deviation.

A. castellanii Neff [3] = assay: Double-stain assay (Hoechst 33342/PI) for programmed cell death; type: cell-based, Acanthamoeba castellanii Neff; conditions: IC90, 24 h
Procedure: A double-stain apoptosis detection kit (Hoechst 33342/PI) (GenScript, Piscataway, NJ, USA) and an EVOS FL Cell Imaging System AMF4300 (Life Technologies, Carlsbad, CA, USA) were used. The experiment was carried out by following the manufacturer’s recommendations, and 10^5 cells/well were incubated in a 24-well plate for 24 h with the previously calculated IC90. The double-staining pattern allows the identification of three groups in a cellular population: live cells will show only a low level of fluorescence, cells undergoing programmed cell death (PCD) will show a higher level of blue fluorescence (as chromatin condenses), and dead cells will show low-blue and high-red fluorescence (as the propidium iodide stain enters the nucleus).

[4] = Cytotoxicity assay (alamarBlue); type: cell-based, murine; conditions: mouse; 24 h, 37 °C; read-out: CC50, toxicity against murine macrophage J774.A1
Procedure: (§2) The antiamoeboid activity of the compounds was evaluated against Acanthamoeba castellanii Neff (ATCC 30010) type strain from the American Type Culture Collection. This strain was axenically incubated in PYG medium (0.75% (w/v) proteose Peptone, 0.75% (w/v) Yeast extract, and 1.5% (w/v) Glucose) supplemented with 10 µg/mL gentamicin (Sigma-Aldrich, Madrid, Spain). As for the cytotoxicity assays, murine macrophages J774A.1 (ATCC TIB-67) were used, cultivated in DMEM medium (Dulbecco’s modified eagle medium, Gibco Life Technologies, California, USA) with 10% supplement of fetal bovine serum (FBS) and 10 µg/mL gentamicin at 37 °C in a 5% CO2 incubator.
The cytotoxicity of the tested compounds was determined in vitro with murine macrophages (J774A.1). For this assay, the DMEM culture medium was changed from RPMI without phenol red (Roswell Park Memorial Institute, Thermo Fisher Scientific Inc., Waltham, MA, USA) to L-Glutamine supplemented with 10% (v/v) inactivated FBS and with 10 µg/mL gentamicin. In this assay, the macrophages were counted and seeded into a 96-well microtiter plate, adding 50 µL to each well from a stock solution of 2 × 10^5 cells/mL. Cells were then left to adhere for 15 min to the plate bottom and were checked with the inverted microscope Leica DMIL. After that, 50 µL of a serial dilution of the compounds was added to the 96-well microtiter plate. Finally, alamarBlue™ was added into each well at an amount equal to 10% of the final volume and incubated at 37 °C in the presence of CO2 at 5% for 24 h. After this period of time, as in the in vitro anti-Acanthamoeba assay, the fluorescence was determined with an EnSpire Multimode Plate Reader (PerkinElmer, Inc, Waltham, MA, USA) at a wavelength of 570/585 nm. The cytotoxicity concentration to inhibit the growth of 50% of murine macrophages (CC50) was calculated through nonlinear regression analysis with 95% confidence limits using the software Sigma Plot 12.0 (Systat Software, Inc, San Jose, CA 95110 USA). Experiments were performed three times each, allowing for standard deviation.

A. castellanii Neff [5] = assay: Analysis of mitochondrial membrane potential (JC-1); type: cell-based, Acanthamoeba castellanii Neff; conditions: IC90, 24 h
Procedure: Collapse of the electrochemical gradient across the mitochondrial membrane during apoptosis was detected with the JC-1 mitochondrial membrane potential detection kit (Cell Technology, Fremont, CA, USA). After being treated with IC90 of the test compound for 24 h, the cells were centrifuged (1000 rpm × 10 min) and resuspended in JC-1 buffer. Images were taken on an EVOS FL Cell Imaging System AMF4300 (Life Technologies, San Francisco, CA, USA) from Life Technologies (Madrid, Spain). The staining pattern allows the identification of two groups in a cellular population: live cells will show only red fluorescence; cells with low mitochondrial potential, (undergoing PCD) will show a higher level of green and red fluorescence.

[6] = tested on: Acanthamoeba castellanii Neff trophozoites; assay: In vitro activity against Acanthamoeba trophozoites (alamarBlue colorimetric assay); type: cell-based, Acanthamoeba castellanii Neff (ATCC 30010); conditions: trophozoites, 96 h, 26 °C, read-out: IC50 against Acanthamoeba castellanii Neff
Procedure: as §2, §1

A. castellanii Neff [7] = assay: Intracellular ROS production (CellROX Deep Red); type: cell-based, Acanthamoeba castellanii Neff; conditions: IC90, 24 h
Procedure: Generation of intracellular ROS was detected using the CellROX® Deep Red fluorescent probe (Invitrogen, Thermo Fisher Scientific Inc., Waltham, MA, USA). The cells were treated with IC90 of DT for 24 h and exposed to CellROX® Deep Red (5 μM, 30 min) at 26 °C in the dark.

## C=C(CC[C@H](O)[C@@]1(C)CC[C@H](C(C)(C)O)O1)[C@H]1CC[C@H]2O[C@@H]([C@]3(C)CC[C@@H](Br)C(C)(C)O3)CC[C@]2(C)O1 [Compound 1, dehydrothyrsiferol]
[1]
  plasma membrane permeability (SYTOX Green): showed plasmatic membrane damage
[2]
  IC50: 56.7 ± 2.09 µM
A. castellanii Neff [3]
  chromatin condensation (Hoechst 33342/propidium iodide double stain): induce chromatin condensation
[4]
  CC50: 28.8 ± 3.1 µM
A. castellanii Neff [5]
  mitochondrial membrane potential (JC-1): mitochondrial membrane potential collapsed
[6]
  IC50: 12.8 ± 1.38 µM
A. castellanii Neff [7]
  reactive oxygen species (ROS) levels: increased levels of ROS
